Test results: patent US20260262643A1, “HERBICIDAL BENZOXAZINES” (FMC CORPORATION, priority 2022, published 2026)

Columns and labels:
[1] = test system: ryegrass, Italian; assay: Test A postemergence; assay type: in vivo, Lolium multiflorum; conditions: postemergence, 10 days
In short: (§1)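 Plants were grown in loam and sand and treated preemergence or postemergence (one- to two-leaf stage, 2–10 cm) with compound in solvent plus surfactant. Response was scored against untreated controls after 10 greenhouse days, where 0 means no effect and 100 complete control.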

[2] = test system: ragweed; assay: Test A preemergence; assay type: in vivo, Ambrosia artemisiifolia
In short: as §1

[3] = test system: horseweed; assay: Test A postemergence; assay type: in vivo, Erigeron canadensis; conditions: postemergence, 10 days
In short: as §1

[4] = test system: ducksalad; assay: Test B flooded paddy test; assay type: in vivo, Heteranthera limosa; conditions: 250 g ai/ha, Flood, 13 days, 0 to 100 scale (0 no effect, 100 complete control)
In short: (§2)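 Species grown to 2-leaf stage; pots flooded 3 cm above soil and compound applied directly to paddy water, depth maintained throughout. After 13 days in greenhouse, plants visually rated against controls on 0–100 scale (0 no effect, 100 complete control); dash means no result.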

[5] = test system: soybean; assay: Test A postemergence; assay type: in vivo, Glycine max; conditions: postemergence, 10 days
In short: as §1

[6] = test system: ragweed; assay: Test A postemergence; assay type: in vivo, Ambrosia artemisiifolia; conditions: postemergence, 10 days
In short: as §1

[7] = test system: foxtail, giant; assay: Test A postemergence; assay type: in vivo, Setaria faberi; conditions: postemergence, 10 days
In short: as §1

[8] = test system: blackgrass; assay: Test A preemergence; assay type: in vivo, Alopecurus myosuroides
In short: as §1

[9] = test system: sedge, umbrella; assay: Test B flooded paddy test; assay type: in vivo, Cyperus difformis; conditions: 250 g ai/ha, Flood, 13 days, 0 to 100 scale (0 no effect, 100 complete control)
In short: as §2

[10] = test system: goosegrass; assay: Test A postemergence; assay type: in vivo, Eleusine indica; conditions: postemergence, 10 days
In short: as §1

[11] = test system: pigweed, palmer; assay: Test A preemergence; assay type: in vivo, Amaranthus palmeri
In short: as §1

[12] = test system: kochia; assay: Test A postemergence; assay type: in vivo, Bassia scoparia; conditions: postemergence, 10 days
In short: as §1

[13] = test system: foxtail, giant; assay: Test A preemergence; assay type: in vivo, Setaria faberi
In short: as §1

[14] = test system: oat, wild; assay: Test A postemergence; assay type: in vivo, Avena fatua; conditions: postemergence, 10 days
In short: as §1

[15] = test system: corn; assay: Test A preemergence; assay type: in vivo, Zea mays
In short: as §1

[16] = test system: oat, wild; assay: Test A preemergence; assay type: in vivo, Avena fatua
In short: as §1

[17] = test system: pigweed, palmer; assay: Test A postemergence; assay type: in vivo, Amaranthus palmeri; conditions: postemergence, 10 days
In short: as §1

[18] = test system: rice; assay: Test B flooded paddy test; assay type: in vivo, Oryza sativa; conditions: 250 g ai/ha, Flood, 13 days, 0 to 100 scale (0 no effect, 100 complete control)
In short: as §2

[19] = test system: ryegrass, Italian; assay: Test A preemergence; assay type: in vivo, Lolium multiflorum
In short: as §1

[20] = test system: goosegrass; assay: Test A preemergence; assay type: in vivo, Eleusine indica
In short: as §1

[21] = test system: blackgrass; assay: Test A postemergence; assay type: in vivo, Alopecurus myosuroides; conditions: postemergence, 10 days
In short: as §1

[22] = test system: kochia; assay: Test A preemergence; assay type: in vivo, Bassia scoparia
In short: as §1

[23] = test system: corn; assay: Test A postemergence; assay type: in vivo, Zea mays; conditions: postemergence, 10 days
In short: as §1

[24] = test system: soybean; assay: Test A preemergence; assay type: in vivo, Glycine max
In short: as §1

[25] = test system: wheat; assay: Test A preemergence; assay type: in vivo, Triticum aestivum
In short: as §1

[26] = test system: wheat; assay: Test A postemergence; assay type: in vivo, Triticum aestivum; conditions: postemergence, 10 days
In short: as §1

[27] = test system: barnyardgrass; assay: Test B flooded paddy test; assay type: in vivo, Echinochloa crus-galli; conditions: 250 g ai/ha, Flood, 13 days, 0 to 100 scale (0 no effect, 100 complete control)
In short: as §2

[28] = test system: galium; assay: Test A postemergence; assay type: in vivo, Galium aparine; conditions: postemergence, 10 days
In short: as §1

[29] = 125 g ai/ha, 0 to 100 scale, 0 no effect, 100 complete control
[30] = 500 g ai/ha, visual injury, 0 to 100 scale (0 no effect, 100 complete control)
[31] = 125 g ai/ha, visual injury after 10 days, 0 to 100 scale, 0 is no effect, 100 is complete control
[32] = 500 g ai/ha, 0 to 100 scale (0 no effect, 100 complete control), 10 days

CCOc1ccc(-n2cnc(C(C)C)n2)cc1C(=O)N1C[C@H](C)Oc2c(Cl)cccc21 [Compound 106]
Ryegrass, Italian plant response rating [1, 29]: 20
Plant response rating, Ryegrass, Italian [1, 30]: 80
Plant response rating, Ragweed [2, 31]: 30
Plant response rating, Ragweed [2, 32]: 100
Horseweed plant response rating [3, 29]: 10
Plant response rating, Horseweed [3, 30]: 80
Plant response rating, Ducksalad [4]: 10
Soybean plant response rating [5, 29]: 100
Plant response rating, Soybean [5, 30]: 100
Ragweed plant response rating [6, 29]: 50
Plant response rating, Ragweed [6, 30]: 70
Foxtail, Giant plant response rating [7, 29]: 90
Plant response rating, Foxtail, Giant [7, 30]: 100
Plant response rating, Blackgrass [8, 31]: 0
Plant response rating, Blackgrass [8, 32]: 0
Plant response rating, Sedge, Umbrella [9]: 90
Goosegrass plant response rating [10, 29]: 70
Plant response rating, Goosegrass [10, 30]: 90
Plant response rating, Pigweed, Palmer [11, 31]: 100
Plant response rating, Pigweed, Palmer [11, 32]: 100
Kochia plant response rating [12, 29]: 90
Plant response rating, Kochia [12, 30]: 90
Plant response rating, Foxtail, Giant [13, 31]: 100
Plant response rating, Foxtail, Giant [13, 32]: 100
Oat, Wild plant response rating [14, 29]: 30
Plant response rating, Oat, Wild [14, 30]: 60
Plant response rating, Corn [15, 31]: 10
Plant response rating, Corn [15, 32]: 50
Plant response rating, Oat, Wild [16, 31]: 20
Plant response rating, Oat, Wild [16, 32]: 90
Pigweed, Palmer plant response rating [17, 29]: 70
Plant response rating, Pigweed, Palmer [17, 30]: 90
Plant response rating, Rice [18]: 15
Plant response rating, Ryegrass, Italian [19, 31]: 40
Plant response rating, Ryegrass, Italian [19, 32]: 100
Plant response rating, Goosegrass [20, 31]: 100
Plant response rating, Goosegrass [20, 32]: 100
Blackgrass plant response rating [21, 29]: 60
Plant response rating, Blackgrass [21, 30]: 80
Plant response rating, Kochia [22, 31]: 50
Plant response rating, Kochia [22, 32]: 100
Corn plant response rating [23, 29]: 60
Plant response rating, Corn [23, 30]: 90
Plant response rating, Soybean [24, 31]: 50
Plant response rating, Soybean [24, 32]: 100
Plant response rating, Wheat [25, 31]: 0
Plant response rating, Wheat [25, 32]: 40
Wheat plant response rating [26, 29]: 20
Plant response rating, Wheat [26, 30]: 40
Plant response rating, Barnyardgrass [27]: 55
Galium plant response rating [28, 29]: 70
Plant response rating, Galium [28, 30]: 100
